Data from the NIST ThermoML archive (doi:10.1016/j.jct.2019.03.014).

Experiments:
[1] = Ring tensiometer
[2] = xn = mol fraction of the nth substance listed; conditions: Ring tensiometer

CCCCO [butan-1-ol]
[1]
Conditions | surface tension liquid-gas [mN/m]
293.2 K | 24.7
303.2 K | 23.8
313.2 K | 22.8
323.2 K | 21.6
333.2 K | 20.3

CCCCO [butan-1-ol] + OCC(O)CO
[2], x1 = 1
Conditions | surface tension liquid-gas [mN/m]
293.2 K | 24.7
303.2 K | 23.8
313.2 K | 22.8
323.2 K | 21.6
333.2 K | 20.3

CCO [ethanol]
[1]
Conditions | surface tension liquid-gas [mN/m]
293.2 K | 22.3
303.2 K | 21.4
313.2 K | 20.6
323.2 K | 19.8
333.2 K | 19

CCO [ethanol] + OCC(O)CO
[2], x1 = 1
Conditions | surface tension liquid-gas [mN/m]
293.2 K | 22.3
303.2 K | 21.4
313.2 K | 20.6
323.2 K | 19.8
333.2 K | 19

OCC(O)CO [glycerol]
[1]
Conditions | surface tension liquid-gas [mN/m]
293.2 K | 63.1
298.2 K | 62.9
303.2 K | 62.4
313.2 K | 62
323.2 K | 61.1
333.2 K | 60.5

OCC(O)CO [glycerol] + CC(C)O
surface tension liquid-gas [mN/m], [2]
Conditions | x2 = 0 | x2 = 0.1 | x2 = 0.2 | x2 = 0.3 | x2 = 0.4 | x2 = 0.5 | x2 = 0.6 | x2 = 0.7 | x2 = 0.8 | x2 = 0.9
293.2 K | 63.1 | 45.7 | 34.3 | 28.8 | 26.7 | 25.6 | 24.8 | 23.9 | 22.8 | 21.9
303.2 K | 62.4 | 45.1 | 34 | 28.5 | 26.2 | 25.1 | 24.2 | 23.4 | 22.3 | 21.4
313.2 K | 62 | 44.4 | 33.6 | 28 | 25.8 | 24.6 | 23.7 | 23 | 21.8 | 20.9
323.2 K | 61.1 | 43.9 | 32.9 | 27.6 | 25.5 | 24.1 | 23.5 | 22.5 | 21.2 | 20
333.2 K | 60.5 | 43.2 | 32.2 | 27.2 | 25 | 23.7 | 22.6 | 22.1 | 20.6 | 19.1

OCC(O)CO [glycerol] + CCCCO
surface tension liquid-gas [mN/m], [2]
Conditions | x2 = 0 | x2 = 0.1 | x2 = 0.2 | x2 = 0.3 | x2 = 0.4 | x2 = 0.5 | x2 = 0.6 | x2 = 0.7 | x2 = 0.8 | x2 = 0.9
293.2 K | 63.1 | 33.1 | 28 | 26.4 | 26.2 | 25.9 | 25.7 | 25.4 | 25.2 | 24.8
303.2 K | 62.4 | 32.9 | 27.7 | 26.2 | 26 | 25.7 | 25.4 | 25.1 | 24.8 | 24.3
313.2 K | 62 | 32.8 | 27.3 | 26.1 | 25.8 | 25.5 | 25.1 | 24.8 | 24.5 | 23.7
323.2 K | 61.1 | 32.7 | 27 | 25.6 | 25.2 | 24.7 | 24.3 | 24 | 23.7 | 22.7
333.2 K | 60.5 | 32.5 | 26.7 | 25.3 | 24.8 | 24.3 | 23.7 | 23.2 | 22.9 | 21.6

OCC(O)CO [glycerol] + CCCO
surface tension liquid-gas [mN/m], [2]
Conditions | x2 = 0 | x2 = 0.1 | x2 = 0.2 | x2 = 0.3 | x2 = 0.4 | x2 = 0.5 | x2 = 0.6 | x2 = 0.7 | x2 = 0.8 | x2 = 0.9
293.2 K | 63.1 | 41.8 | 33.4 | 30.1 | 28.3 | 27.3 | 26.5 | 26 | 25.3 | 24.7
303.2 K | 62.4 | 41.5 | 33.1 | 29.7 | 27.9 | 26.9 | 26.1 | 25.5 | 24.8 | 24.1
313.2 K | 62 | 41.2 | 32.8 | 29.3 | 27.7 | 26.4 | 25.7 | 25 | 24.2 | 23.3
323.2 K | 61.1 | 40.9 | 32.5 | 28.9 | 27.2 | 26 | 25.3 | 24.5 | 23.6 | 22.5
333.2 K | 60.5 | 40.5 | 32.2 | 28.5 | 26.6 | 25.6 | 25 | 24 | 23 | 21.6

OCC(O)CO [glycerol] + CCO
surface tension liquid-gas [mN/m], [2]
Conditions | x2 = 0 | x2 = 0.1 | x2 = 0.2 | x2 = 0.3 | x2 = 0.4 | x2 = 0.5 | x2 = 0.6 | x2 = 0.7 | x2 = 0.8 | x2 = 0.9
293.2 K | 63.1 | 52.9 | 41.7 | 36.1 | 31.9 | 29 | 27.5 | 26.2 | 24.9 | 23.7
303.2 K | 62.4 | 52.4 | 41.4 | 35.9 | 31.6 | 28.5 | 27.1 | 25.4 | 24.2 | 23.2
313.2 K | 62 | 52 | 41.1 | 35.7 | 31.2 | 27.9 | 26.7 | 24.5 | 23.5 | 22.6
323.2 K | 61.1 | 51.5 | 40.7 | 35.4 | 30.9 | 27.7 | 26.3 | 23.6 | 22.8 | 22
333.2 K | 60.5 | 51.1 | 40.5 | 35 | 30.6 | 27.2 | 25.9 | 22.7 | 22.1 | 21.2

CCCO [propan-1-ol]
[1]
Conditions | surface tension liquid-gas [mN/m]
293.2 K | 23.7
303.2 K | 22.9
313.2 K | 22.1
323.2 K | 21.3
333.2 K | 20.6

CCCO [propan-1-ol] + OCC(O)CO
[2], x1 = 1
Conditions | surface tension liquid-gas [mN/m]
293.2 K | 23.7
303.2 K | 22.9
313.2 K | 22.1
323.2 K | 21.3
333.2 K | 20.6

CC(C)O [propan-2-ol]
[1]
Conditions | surface tension liquid-gas [mN/m]
293.2 K | 21.4
303.2 K | 20.7
313.2 K | 19.7
323.2 K | 18.7
333.2 K | 17.6

CC(C)O [propan-2-ol] + OCC(O)CO
[2], x1 = 1
Conditions | surface tension liquid-gas [mN/m]
293.2 K | 21.4
303.2 K | 20.7
313.2 K | 19.7
323.2 K | 18.7
333.2 K | 17.6
